The PolyMetriX glass transition set
± gives the standard deviation of the reports.

SMILES	glass transition temperature [°C]
*Nc1ccc(NC(=O)c2ccc(NC(=O)c3cc(NC(=O)C45CC6CC(CC(C6)C4)C5)cc(C(*)=O)c3)cc2)cc1 (repeat unit)	365.00
*c1ccc(-c2ccc(N3C(=O)c4ccc(Oc5ccc6c(c5)C(=O)N(*)C6=O)cc4C3=O)cc2)cc1 (repeat unit)	286.00
*C(*)(F)F (repeat unit) [Poly(tetrafluoroethylene)]	118.42 ± 2.2
*C(=O)c1cccc(C(=O)c2ccc3c(c2)C(=O)N(c2ccc(Oc4ccc(N5C(=O)c6ccc(*)cc6C5=O)cc4)cc2)C3=O)c1 (repeat unit)	244.00
*c1ccc(Oc2cccc(Oc3ccc(N4C(=O)c5cccc(Oc6ccc(-c7ccc(Oc8cccc9c8C(=O)N(*)C9=O)cc7)cc6)c5C4=O)cc3)c2)cc1 (repeat unit)	224.00
*CC(*)C(=O)OCCCCCCC (repeat unit)	-60.00
*CC(*)OC(=O)CC (repeat unit) [Poly(vinyl propionate) ]	10 ± 2
*c1ccc(Oc2ccc(-c3cnc4ccc(-c5ccc6nc(*)cnc6c5)cc4n3)cc2)cc1 (repeat unit)	280.00
*Nc1cc(NC(=O)NC2CCC(CC3CCC(NC(*)=O)CC3)CC2)cc(C(=O)Nc2cccc3c2C(=O)c2ccccc2C3=O)c1 (repeat unit)	156.00
*c1ccc(Oc2ccc(-c3cnc4cc(Oc5ccc6nc(*)cnc6c5)ccc4n3)cc2)cc1 (repeat unit)	382.00
*Oc1ccc(Sc2ccc(Oc3ccc(-c4ccc(-c5ccc(-c6ccc(*)c(C(F)(F)F)c6)cc5)cc4)cc3C(F)(F)F)cc2)cc1 (repeat unit)	176.50
*c1ccc(Oc2ccc(-c3ccc(Oc4ccc(N5C(=O)c6ccc(Oc7c(C)cc(C(C)(C)c8cc(C)c(Oc9ccc%10c(c9)C(=O)N(*)C%10=O)c(C)c8)cc7C)cc6C5=O)cc4)cc3C)c(C)c2)cc1 (repeat unit)	257.00
*C(=O)Nc1ccc(Oc2ccccc2-c2ccccc2Oc2ccc(NC(=O)c3ccc4c(c3)C(=O)N(c3ccc(N5C(=O)c6ccc(*)cc6C5=O)cc3)C4=O)cc2)cc1 (repeat unit)	268.00
*c1ccc2c(c1)C(=O)N(c1cccc(Oc3ccc(N4C(=O)c5ccc(C(*)(C(F)(F)F)C(F)(F)F)cc5C4=O)cc3)c1)C2=O (repeat unit)	260.00
*Cc1ccc(CO*)cc1 (repeat unit)	217.00
*C/C=C/C[Si](*)(C=C)C=C (repeat unit)	-65.00
*Oc1ccc(NC(=O)c2cc(NC(=O)C34CC5CC(CC(C5)C3)C4)cc(C(=O)Nc3ccc(*)cc3)c2)cc1 (repeat unit)	335.00

SMILES	glass transition temperature [°C]
*C(=O)Nc1ccc(S(=O)(=O)c2ccc(NC(=O)c3ccc4[nH]c(-c5cccc(-c6nc7cc(*)ccc7[nH]6)c5)nc4c3)cc2)cc1 (repeat unit)	312.00
*C1CCC(CC2CCC(N3C(=O)c4ccc(-c5ccc6c(c5)C(=O)N(*)C6=O)cc4C3=O)C(C)C2)CC1C (repeat unit)	260.00
*C(=O)Nc1cccc(NC(=O)c2ccc3c(c2)C(=O)N(c2cc(-c4nc5ccccc5o4)cc(N4C(=O)c5ccc(*)cc5C4=O)c2)C3=O)n1 (repeat unit)	365.00
*c1ccc(Oc2ccc(C(C)(C)c3ccc(Oc4ccc(N5C(=O)C6CCC7C(=O)N(*)C(=O)C7C6C5=O)cc4)cc3)cc2)cc1 (repeat unit)	263.50
*C(=O)Nc1ccc(Oc2ccc(Oc3ccc(NC(=O)c4ccc5c(c4)C(=O)N(c4ccc(Oc6ccc(N7C(=O)c8ccc(*)cc8C7=O)cc6)cc4)C5=O)cc3)cc2)cc1 (repeat unit)	260.00
*OC(C)CCCC(C)C(*)=O (repeat unit)	-33.00
*c1ccc2c(c1)C(=O)N(c1ccc(C(=O)Nc3ccc(Oc4ccc(C(C)(C)c5ccc(Oc6ccc(NC(=O)c7ccc(N8C(=O)c9ccc(C(*)(C(F)(F)F)C(F)(F)F)cc9C8=O)cc7)cc6)cc5)cc4)cc3)cc1)C2=O (repeat unit)	266.00
*CC(*)N (repeat unit)	57.00
*CC(C)(CO)CO* (repeat unit)	62.00
*Oc1ccc(C2(c3ccc(Oc4ccc(C(=O)c5ccc(C(=O)c6ccc(*)c(C(F)(F)F)c6)cc5)cc4C(F)(F)F)cc3)c3ccccc3-c3ccccc32)cc1 (repeat unit)	229.00
*CC(*)N1CCCC1=O (repeat unit) [Poly(N-vinyl pyrrolidone)]	145 ± 7.9
*c1ccc(Cc2ccc(N3C(=O)CC(Nc4ccc(N(c5ccc(Nc6ccc([N+](=O)[O-])cc6)cc5)c5ccc(NC6CC(=O)N(*)C6=O)cc5)cc4)C3=O)cc2)cc1 (repeat unit)	324.00
*C(=O)Nc1ccc(S(=O)(=O)c2ccc(NC(=O)c3ccc4[nH]c(-c5cc(-c6nc7cc(*)ccc7[nH]6)cc(N6C(=O)c7ccccc7C6=O)c5)nc4c3)cc2)cc1 (repeat unit)	325.00
*OC(C)COC(=O)/C=C/C(*)=O (repeat unit)	-14.00
*Oc1cccc(C(=O)Nc2ccc(S(=O)(=O)c3ccc(NC(=O)c4cccc(Oc5nc(*)nc(Sc6ccccc6)n5)c4)cc3)cc2)c1 (repeat unit)	304.00
*Oc1ccc(S(=O)(=O)c2ccc(Oc3ccc(/C=C4\CCCC/C(=C\c5ccc(*)cc5)C4=O)cc3)cc2)cc1 (repeat unit)	186.00

The remaining lines, values ahead:

glass transition temperature [°C]	SMILES
0.90	*CC(=O)NCCCCCCNC(=O)COC(=O)CCCCCCCCCCC(=O)O* (repeat unit)
175.00	*CC(O)COc1ccc(C2CC(C(C)C)CCC2(C)c2ccc(O*)cc2)cc1 (repeat unit)
160.00	*Oc1cccc(NC(=O)CCCCC(=O)Nc2ccc(*)cc2)c1 (repeat unit)
30.00	*Oc1ccc(C(=O)OCCOCCOCCOCCOC(=O)c2ccc(OC(=O)c3ccc(C(*)=O)cc3)cc2)cc1 (repeat unit)
-18.00	*CC(C)(CO*)COCCOCCOCCOC (repeat unit)
77.00	*CCOCCOC(=O)c1ccc(N/C=N/c2ccc(C(=O)O*)cc2)cc1 (repeat unit)
96.40	*CCCCCCCCCn1c2ccccc2c2cc(/C=C(\C#N)C(=O)OCCCCCCOC(=O)/C(C#N)=C/c3ccc4c(c3)c3ccccc3n4*)ccc21 (repeat unit)
251.50	*Oc1ccc(C2(c3ccc(OC(*)=O)cc3)CC3CC2C2CCCC32)cc1 (repeat unit)
30.00	*CNC(=O)OCC(OC(=O)NCc1ccc(*)o1)c1ccco1 (repeat unit)
111.00	*Oc1c(-c2ccccc2)cc(Cc2cc(-c3ccccc3)c(OC(=O)CCCCCC(*)=O)c(-c3ccccc3)c2)cc1-c1ccccc1 (repeat unit)
102.00	*C(=O)OCCCCCCCCCCOC(=O)c1ccc(NC(=O)c2ccc(N3C(=O)c4ccc(*)cc4C3=O)cc2)cc1 (repeat unit)
15.00	*Oc1ccc(CC(NC(=O)CCc2ccc(OC(=O)CCCCC(*)=O)cc2)C(=O)OCCOCCOCC)cc1 (repeat unit)
16.00	*Oc1ccc(CC(NC(=O)Cc2ccc(OC(=O)CCCCCCCCC(*)=O)cc2)C(=O)OCCCCCCCC)cc1 (repeat unit)
125.00	*CC(*)(CC(=O)OCC(C)C)C(=O)OCC(C)C (repeat unit)
94.00	*CCN(CCOC(=O)c1ccc(C(=O)O*)c(OCCC)c1)c1ccc(C=C(C#N)C#N)cc1 (repeat unit)
104.00	*CCCCCC(=O)Oc1ccc(C(C)(C)c2ccc(C(C)(C)c3ccc(OC(=O)c4ccc5c(c4)C(=O)N(*)C5=O)cc3)cc2)cc1 (repeat unit)

glass transition temperature [°C]	SMILES
57.00	*CC(*)(C)C(=O)OCCCCOc1ccc(OC(=O)c2ccc(OC)cc2)cc1 (repeat unit)
162.00	*Oc1ccc(C(c2ccc(OC(=O)c3ccccc3-c3ccccc3C(*)=O)cc2)(C(F)(F)F)C(F)(F)F)cc1 (repeat unit)
179.00	*Oc1ccc(C(C)(c2ccccc2)c2ccc(OC(*)=O)cc2)cc1 (repeat unit)
92.50	*OC(C)CCOC(=O)c1ccc(-c2ccc(C(*)=O)cc2)cc1 (repeat unit)
154.00	*Oc1ccc(C(=O)c2ccc(*)cc2)cc1 (repeat unit)
-38.00	*CCOCCOCCOCCOC(=O)CCSCCC(=O)O* (repeat unit)
201.00	*Oc1ccc(C2(c3ccc(Oc4ccc(C(=O)c5ccc(*)cc5)cc4)c(C)c3)CCC3CCCCC3C2)cc1C (repeat unit)
135.00	*CCCCC(C)CCn1c(=O)c2cc3c(=O)n(*)c(=O)c3cc2c1=O (repeat unit)
216.70	*Oc1ccc(C(C)(C)c2ccc(Oc3ccc4c(c3)C(=O)N(N3C(=O)c5ccc(*)cc5C3=O)C4=O)cc2)cc1 (repeat unit)
55.00	*O[Si](*)(C)CCCCCCCCCCCOc1ccc(/C=C/c2ccc(OC)cc2)cc1 (repeat unit)
145.00	*c1ccc(Oc2ccc(N3C(=O)C(C)C(SCCOCCSC4C(=O)N(c5ccc(Oc6ccc(N7C(=O)CC(C)(SCCOCCSC8(C)CC(=O)N(*)C8=O)C7=O)cc6)cc5)C(=O)C4C)C3=O)cc2)cc1 (repeat unit)
265.00	*c1c(C)cc(Cc2cc(C)c(N3C(=O)c4ccc(Oc5cc6ccccc6cc5Oc5ccc6c(c5)C(=O)N(*)C6=O)cc4C3=O)c(C)c2)cc1C (repeat unit)
60.00	*Oc1c(C)cc(*)cc1C(C)CCCCC (repeat unit)
65.00	*CC(COc1ccc(C(C)(C)c2ccc(O*)cc2)cc1)OC(=O)CCl (repeat unit)
65.00	*CCCCCCC(=O)NCc1ccc(CNC(=O)CCCCCCS*)cc1 (repeat unit)
